In brackets after ≈: the same amount, converted by molar mass. Where two headings read alike, the source gives them in different places.
Tests used:
[1] = test system: C. albicans; assay: Antifungal Activity Assay (broth microtiter MIC), C. albicans; type: cell-based, Candida albicans; conditions: for MIC: Candida albicans, ATCC90028, 48 h
In short: (§1)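 Susceptibility was determined by CLSI M27-A3 broth microdilution in RPMI 1640 buffered with MOPS. Growth inhibition was scored visually after 48 h.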

[2] = test system: Rhizoctonia solani (Rs); assay: Growth inhibition assay of fungal pathogens, Rs; type: cell-based; conditions: for IC90: 48 h
[3] = test system: C. krusei; assay: Antifungal Activity Assay (broth microtiter MIC), C. krusei; type: cell-based, Candida krusei; conditions: for MIC: Pichia kudriavzevii, ATCC6258, 48 h
In short: as §1

[4] = test system: Collectotrichum graminicola (Cg); assay: Growth inhibition assay of fungal pathogens, Cg; type: cell-based; conditions: growth inhibition at 48 hours vs 2% DMSO control; for IC90: 48 h
In short: (§2)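 Pathogen growth in 17% V8 broth is measured by OD600 at 24 and 48 hours, after blank subtraction, in the presence of compound at 50, 10 and 2 ppm or 2, 0.4 and 0.08 ppm. Inhibition in percent comes from 48-hour readings against the DMSO control.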

[5] = biological target: fungal (fACC2) (UniProt Q00955); conditions: read-out: fACC2 (in vitro ACC2 Inhibition Assay, IC50); Table 2b, additional results; ADP-Glo, 5 nM ACC2, 20 μM ATP, 20 μM acetyl-CoA
[6] = test system: Fusarium moniliforme (Fm); assay: Growth inhibition assay of fungal pathogens, Fm; type: cell-based; conditions: for IC90: Fusarium verticillioides, 48 h, read-out: Concentration at 90% Inhibition Fm
In short: as §2

[7] = biological target: human (hACC2) (Homo sapiens, UniProt O00763); assay: In vitro ACC inhibition assay (ADP-Glo), hACC2; type: biochemical; conditions: Table 2b, additional results, 5 nM ACC2, 20 μM ATP, 20 μM acetyl-CoA
Protocol: The detailed procedure is as follows. […] 10 μL ADP glo reagent was added. […] 20 μL kinase detection reagent was added.

[8] = test system: C. parapsilosis; assay: Antifungal Activity Assay (broth microtiter MIC), C. parapsilosis; type: cell-based, Candida parapsilosis; conditions: for MIC: Lodderomyces parapsilosis, ATCC22019, 48 h
In short: as §1

[9] = test system: Phytophthora capsici (Pc); assay: Growth inhibition assay of fungal pathogens, Pc; type: cell-based; conditions: for IC90: 48 h
In short: as §2

[10] = test system: Botrtyis cinerea (Bc); assay: Growth inhibition assay of fungal pathogens, Bc; type: cell-based; conditions: growth inhibition at 48 hours vs 2% DMSO control; for IC90: 48 h
In short: as §2

[11] = test system: Diplodia maydis (Dm); assay: Growth inhibition assay of fungal pathogens, Dm; type: cell-based; conditions: growth inhibition at 48 hours vs 2% DMSO control; for IC90: Stenocarpella maydis, 48 h
In short: as §2

[12] = test system: Septoria tritici (St); assay: Growth inhibition assay of fungal pathogens, St; type: cell-based; conditions: growth inhibition at 48 hours vs 2% DMSO control; for IC90: Zymoseptoria tritici, 48 h
In short: as §2

[13] = test system: Fusarium virguliforme (Fv); assay: Growth inhibition assay of fungal pathogens, Fv; type: cell-based; conditions: for IC90: 48 h
In short: as §2

[14] = Table 3b (additional results), ATCC 90028, 3 replicates, MIC recorded at 48 h, read-out: MIC, C. albicans ATCC 90028
[15] = mycelial plugs, growth inhibition at 48 hours vs 2% DMSO control, read-out: Concentration at 90% Inhibition Rs
[16] = Table 3b (additional results), ATCC 6258, 3 replicates, MIC recorded at 48 h, read-out: MIC, C. krusei ATCC 6258
[17] = Collectotrichum graminicola, read-out: Concentration at 90% Inhibition Cg
[18] = Fusarium moniliforme, growth inhibition at 48 hours vs 2% DMSO control
[19] = Table 3b (additional results), ATCC 22019, 3 replicates, MIC recorded at 48 h, read-out: MIC, C. parapsilosis ATCC 22019
[20] = growth inhibition at 48 hours vs 2% DMSO control, read-out: Concentration at 90% Inhibition Pc
[21] = Botrtyis cinerea, read-out: Concentration at 90% Inhibition Bc
[22] = Diplodia maydis, read-out: Concentration at 90% Inhibition Dm
[23] = Septoria tritici, read-out: Concentration at 90% Inhibition St
[24] = growth inhibition at 48 hours vs 2% DMSO control, read-out: Concentration at 90% Inhibition Fv
[25] = growth inhibition at 48 hours vs 2% DMSO control
[26] = Table 3b (additional results), 3 replicates, MIC recorded at 48 h

Chain of fungal (fACC2) (Q00955 whole entry): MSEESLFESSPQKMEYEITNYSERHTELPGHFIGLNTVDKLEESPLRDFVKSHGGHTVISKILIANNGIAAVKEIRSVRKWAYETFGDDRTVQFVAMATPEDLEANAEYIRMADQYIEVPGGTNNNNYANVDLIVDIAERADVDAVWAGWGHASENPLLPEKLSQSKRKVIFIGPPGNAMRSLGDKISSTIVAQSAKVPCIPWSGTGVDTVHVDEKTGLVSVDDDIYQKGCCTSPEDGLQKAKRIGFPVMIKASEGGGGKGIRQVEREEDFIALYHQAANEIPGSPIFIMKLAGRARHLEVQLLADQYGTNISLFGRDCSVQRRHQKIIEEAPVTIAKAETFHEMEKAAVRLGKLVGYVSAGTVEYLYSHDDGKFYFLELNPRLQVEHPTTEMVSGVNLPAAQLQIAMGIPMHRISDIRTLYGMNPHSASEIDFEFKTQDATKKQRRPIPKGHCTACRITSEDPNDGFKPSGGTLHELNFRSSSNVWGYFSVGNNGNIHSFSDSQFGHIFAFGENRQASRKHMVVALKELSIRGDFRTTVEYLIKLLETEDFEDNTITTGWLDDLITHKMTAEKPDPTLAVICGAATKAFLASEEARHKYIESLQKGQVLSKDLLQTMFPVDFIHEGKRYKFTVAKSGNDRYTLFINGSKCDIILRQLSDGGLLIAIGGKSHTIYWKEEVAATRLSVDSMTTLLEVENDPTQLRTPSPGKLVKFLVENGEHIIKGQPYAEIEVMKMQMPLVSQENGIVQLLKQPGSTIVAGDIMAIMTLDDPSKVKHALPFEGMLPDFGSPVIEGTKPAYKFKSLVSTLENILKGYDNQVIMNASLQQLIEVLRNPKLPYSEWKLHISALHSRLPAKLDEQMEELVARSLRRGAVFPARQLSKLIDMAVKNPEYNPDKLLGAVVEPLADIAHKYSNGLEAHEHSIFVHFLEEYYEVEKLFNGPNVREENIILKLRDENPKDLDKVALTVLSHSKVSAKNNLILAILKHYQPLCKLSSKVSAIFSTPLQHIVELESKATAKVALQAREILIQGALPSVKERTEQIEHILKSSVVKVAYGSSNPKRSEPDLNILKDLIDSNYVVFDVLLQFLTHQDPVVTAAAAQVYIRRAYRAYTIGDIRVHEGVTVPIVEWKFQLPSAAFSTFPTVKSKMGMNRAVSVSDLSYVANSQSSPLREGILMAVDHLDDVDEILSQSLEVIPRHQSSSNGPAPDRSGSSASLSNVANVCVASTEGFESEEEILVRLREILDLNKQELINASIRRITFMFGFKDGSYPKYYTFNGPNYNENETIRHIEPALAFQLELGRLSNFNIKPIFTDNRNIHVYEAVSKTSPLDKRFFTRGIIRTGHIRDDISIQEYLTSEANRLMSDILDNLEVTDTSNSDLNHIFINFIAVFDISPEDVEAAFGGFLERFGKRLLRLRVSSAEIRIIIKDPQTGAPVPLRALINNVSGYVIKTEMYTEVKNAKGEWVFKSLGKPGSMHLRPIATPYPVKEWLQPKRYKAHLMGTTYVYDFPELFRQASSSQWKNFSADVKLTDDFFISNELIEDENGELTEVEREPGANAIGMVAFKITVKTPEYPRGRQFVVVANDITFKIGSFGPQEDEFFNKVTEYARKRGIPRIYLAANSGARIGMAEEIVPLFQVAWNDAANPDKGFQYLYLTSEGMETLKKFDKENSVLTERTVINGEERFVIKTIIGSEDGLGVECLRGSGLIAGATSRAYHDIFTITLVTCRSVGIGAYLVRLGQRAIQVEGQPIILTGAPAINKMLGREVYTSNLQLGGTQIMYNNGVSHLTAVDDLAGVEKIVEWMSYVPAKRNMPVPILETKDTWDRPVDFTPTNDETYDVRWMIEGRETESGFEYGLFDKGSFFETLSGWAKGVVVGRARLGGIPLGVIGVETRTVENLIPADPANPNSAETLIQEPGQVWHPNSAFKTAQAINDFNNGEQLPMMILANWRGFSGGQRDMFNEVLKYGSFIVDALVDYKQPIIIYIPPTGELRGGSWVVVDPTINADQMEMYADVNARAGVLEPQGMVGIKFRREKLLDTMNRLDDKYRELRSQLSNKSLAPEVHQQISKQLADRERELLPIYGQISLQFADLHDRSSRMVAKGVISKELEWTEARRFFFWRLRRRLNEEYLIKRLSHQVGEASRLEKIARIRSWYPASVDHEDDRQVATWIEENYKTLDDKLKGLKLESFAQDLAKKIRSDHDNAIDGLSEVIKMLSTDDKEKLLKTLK
Chain of human (hACC2) (O00763 whole entry): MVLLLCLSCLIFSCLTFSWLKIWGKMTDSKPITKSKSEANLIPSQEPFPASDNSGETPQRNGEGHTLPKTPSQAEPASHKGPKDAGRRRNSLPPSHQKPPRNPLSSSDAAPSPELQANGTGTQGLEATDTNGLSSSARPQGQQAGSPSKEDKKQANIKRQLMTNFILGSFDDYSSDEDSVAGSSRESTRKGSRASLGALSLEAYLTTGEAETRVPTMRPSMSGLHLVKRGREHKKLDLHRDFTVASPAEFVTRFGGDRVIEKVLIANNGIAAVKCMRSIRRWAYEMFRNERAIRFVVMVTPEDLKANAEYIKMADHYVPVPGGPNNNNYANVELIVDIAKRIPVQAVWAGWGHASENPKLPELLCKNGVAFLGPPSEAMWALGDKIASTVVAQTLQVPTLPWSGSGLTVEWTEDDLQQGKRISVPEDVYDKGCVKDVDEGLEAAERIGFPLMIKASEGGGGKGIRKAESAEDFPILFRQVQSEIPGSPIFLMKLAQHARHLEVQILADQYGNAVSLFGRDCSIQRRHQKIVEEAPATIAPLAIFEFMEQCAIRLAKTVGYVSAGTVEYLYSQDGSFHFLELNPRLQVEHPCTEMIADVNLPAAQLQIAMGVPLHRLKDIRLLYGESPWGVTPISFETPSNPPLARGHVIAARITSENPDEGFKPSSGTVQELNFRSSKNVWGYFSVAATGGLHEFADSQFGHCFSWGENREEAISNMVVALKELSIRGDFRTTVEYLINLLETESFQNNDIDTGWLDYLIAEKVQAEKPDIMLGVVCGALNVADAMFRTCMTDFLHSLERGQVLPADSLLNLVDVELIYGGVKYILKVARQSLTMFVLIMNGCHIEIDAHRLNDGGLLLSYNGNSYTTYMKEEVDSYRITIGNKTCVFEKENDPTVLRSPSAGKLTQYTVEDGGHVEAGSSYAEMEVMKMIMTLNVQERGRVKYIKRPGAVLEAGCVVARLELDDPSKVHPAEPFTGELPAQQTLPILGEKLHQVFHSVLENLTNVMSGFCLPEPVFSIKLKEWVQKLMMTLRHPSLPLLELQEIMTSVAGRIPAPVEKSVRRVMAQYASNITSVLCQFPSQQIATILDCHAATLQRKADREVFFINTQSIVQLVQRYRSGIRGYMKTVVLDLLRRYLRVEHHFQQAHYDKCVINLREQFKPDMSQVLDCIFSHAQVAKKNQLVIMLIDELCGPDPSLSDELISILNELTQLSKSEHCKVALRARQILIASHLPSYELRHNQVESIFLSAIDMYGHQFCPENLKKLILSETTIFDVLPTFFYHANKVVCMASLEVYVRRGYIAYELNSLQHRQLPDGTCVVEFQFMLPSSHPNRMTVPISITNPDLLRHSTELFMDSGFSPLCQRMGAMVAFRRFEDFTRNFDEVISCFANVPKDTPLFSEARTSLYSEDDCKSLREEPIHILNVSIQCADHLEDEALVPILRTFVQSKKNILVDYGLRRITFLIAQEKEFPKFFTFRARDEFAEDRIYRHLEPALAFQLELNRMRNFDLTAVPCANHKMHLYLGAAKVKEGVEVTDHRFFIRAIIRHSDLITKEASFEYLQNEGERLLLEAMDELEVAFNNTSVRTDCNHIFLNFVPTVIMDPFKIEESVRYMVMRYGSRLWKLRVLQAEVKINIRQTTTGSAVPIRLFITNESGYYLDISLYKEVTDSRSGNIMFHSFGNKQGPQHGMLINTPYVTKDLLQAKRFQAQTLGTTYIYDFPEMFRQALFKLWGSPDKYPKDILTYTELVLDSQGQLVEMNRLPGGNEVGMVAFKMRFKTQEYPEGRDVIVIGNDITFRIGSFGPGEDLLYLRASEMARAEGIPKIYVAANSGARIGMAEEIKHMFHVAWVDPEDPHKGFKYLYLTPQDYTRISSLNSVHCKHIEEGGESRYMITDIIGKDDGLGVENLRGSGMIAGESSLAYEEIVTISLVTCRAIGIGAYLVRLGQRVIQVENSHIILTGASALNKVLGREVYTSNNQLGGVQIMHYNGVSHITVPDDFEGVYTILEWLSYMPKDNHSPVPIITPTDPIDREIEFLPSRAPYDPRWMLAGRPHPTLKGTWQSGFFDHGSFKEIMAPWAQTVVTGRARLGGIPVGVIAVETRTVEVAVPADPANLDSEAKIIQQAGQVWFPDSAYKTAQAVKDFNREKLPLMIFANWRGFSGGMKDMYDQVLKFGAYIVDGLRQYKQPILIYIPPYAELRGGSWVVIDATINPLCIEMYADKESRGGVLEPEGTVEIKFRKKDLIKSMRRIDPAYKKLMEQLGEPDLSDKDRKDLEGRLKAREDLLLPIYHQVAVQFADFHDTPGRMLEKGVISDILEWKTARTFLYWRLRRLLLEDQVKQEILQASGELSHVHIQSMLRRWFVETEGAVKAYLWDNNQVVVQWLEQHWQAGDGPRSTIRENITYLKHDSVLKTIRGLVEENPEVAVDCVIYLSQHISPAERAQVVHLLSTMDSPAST

Compound	MIC [1, 14] [µg/mL]	IC90 [2, 15] [µg/mL]	MIC [3, 16] [µg/mL]	IC90 [4, 17] [µg/mL]	IC50 [5] [nM]	IC90 [6, 18] [µg/mL]	IC50 [7] [nM]	MIC [8, 19] [µg/mL]	IC90 [9, 20] [µg/mL]	IC90 [10, 21] [µg/mL]	IC90 [11, 22] [µg/mL]	IC90 [12, 23] [µg/mL]	IC90 [13, 24] [µg/mL]	Concentration at 90% Inhibition Cg ([4]; Collectotrichum graminicola)	Concentration at 90% Inhibition Fm [6, 18]	Concentration at 90% Inhibition Bc ([10]; Botrtyis cinerea)	Concentration at 90% Inhibition Fv [13, 25]	further results
COc1ccc(F)cc1[C@H](Cn1c(=O)n(C(C)(C)C(=O)NC(C)C)c(=O)c2c(C)c(-n3nccn3)sc21)OC(=O)CO [Compound I-262]	0.25 to 1 (≈ 0.415 to 1.66 µM)	> 50	0.06 to 0.249 (≈ 0.0996 to 0.413 µM)	> 50	5 to 10	10 (≈ 16.6 µM)	> 40	1.01 to 2 (≈ 1.68 to 3.32 µM)	> 50	> 50	> 50	> 50	10 (≈ 16.6 µM)	–	–	–	–	–
COc1ccc(F)cc1CCn1c(=O)n(C(C)(C)C(=O)NC(C)C)c(=O)c2c(C)c(-n3nccn3)sc21 [Compound I-266]	1.01 to 2 (≈ 1.91 to 3.78 µM)	2 (≈ 3.78 µM)	0.25 to 1 (≈ 0.473 to 1.89 µM)	–	1 to 5	–	5 to 10	1.01 to 2 (≈ 1.91 to 3.78 µM)	> 50	–	10 (≈ 18.9 µM)	> 50	–	B (compound concentration of 2.0 ppm at 90% inhibition of fungal pathogens)	B (compound concentration of 2.0 ppm at 90% inhibition of fungal pathogens)	B (compound concentration of 2.0 ppm at 90% inhibition of fungal pathogens)	B (compound concentration of 2.0 ppm at 90% inhibition of fungal pathogens)	–
COc1ccc(F)cc1[C@@H](CCCO)Cn1c(=O)n(C(C)(C)C(=O)NC(C)C)c(=O)c2c(C)c(-n3nccn3)sc21 [Compound I-267]	–	–	–	–	1 to 5	–	> 40	–	–	–	–	–	–	–	–	–	–	MIC ([1]; read-out: MIC, C. albicans ATCC 90028, Table 3b (additional results), 3 replicates, MIC recorded at 48 h): 0.25 to 1 µg/mL (≈ 0.426 to 1.7 µM); IC90 ([2]; read-out: Concentration at 90% Inhibition Rs, Rhizoctonia solani, mycelial plugs, growth inhibition at 48 hours vs 2% DMSO control): > 50 µg/mL; MIC ([3]; read-out: MIC, C. krusei ATCC 6258, Table 3b (additional results), 3 replicates, MIC recorded at 48 h): 0.06 to 0.249 µg/mL (≈ 0.102 to 0.424 µM); IC90 ([4]; read-out: Concentration at 90% Inhibition Cg, Collectotrichum graminicola): > 50 µg/mL; IC90 [6]: 2 µg/mL (≈ 3.41 µM); MIC ([8]; read-out: MIC, C. parapsilosis ATCC 22019, Table 3b (additional results), 3 replicates, MIC recorded at 48 h): 0.25 to 1 µg/mL (≈ 0.426 to 1.7 µM); IC90 ([9]; read-out: Concentration at 90% Inhibition Pc, Phytophthora capsici, growth inhibition at 48 hours vs 2% DMSO control): > 50 µg/mL; IC90 ([10]; read-out: Concentration at 90% Inhibition Bc, Botrtyis cinerea): > 50 µg/mL; IC90 ([11]; read-out: Concentration at 90% Inhibition Dm, Diplodia maydis): > 50 µg/mL; IC90 ([12]; read-out: Concentration at 90% Inhibition St, Septoria tritici): > 50 µg/mL; IC90 ([13]; read-out: Concentration at 90% Inhibition Fv, Fusarium virguliforme, growth inhibition at 48 hours vs 2% DMSO control): 10 µg/mL (≈ 17 µM)
COc1ccc(F)cc1CCn1c(=O)n(C(C)(C)C(=O)NC(C)C)c(=O)c2c(C)c(-n3nccn3)sc21 [Compound I-268]	–	–	–	–	1 to 5	–	10 to 40	–	–	–	–	–	–	C (compound concentration of 10.0 ppm at 90% inhibition of fungal pathogens)	A (compound concentration of 0.4 ppm at 90% inhibition of fungal pathogens)	A (compound concentration of 0.4 ppm at 90% inhibition of fungal pathogens)	AA (compound concentration of 0.08 ppm at 90% inhibition of fungal pathogens)	MIC, C. albicans ATCC 90028 [1, 26]: B (MIC of 1.01-2.0 μg/mL); Concentration at 90% Inhibition Rs ([2]; mycelial plugs, growth inhibition at 48 hours vs 2% DMSO control): B (compound concentration of 2.0 ppm at 90% inhibition of fungal pathogens); MIC, C. krusei ATCC 6258 [3, 26]: A (MIC of 0.25-1.0 μg/mL); MIC, C. parapsilosis ATCC 22019 [8, 26]: B (MIC of 1.01-2.0 μg/mL); Concentration at 90% Inhibition Pc [9, 25]: D (compound concentration of >50 ppm at 90% inhibition of fungal pathogens); Concentration at 90% Inhibition Dm ([11]; Diplodia maydis): C (compound concentration of 10.0 ppm at 90% inhibition of fungal pathogens); Concentration at 90% Inhibition St ([12]; Septoria tritici): D (compound concentration of >50 ppm at 90% inhibition of fungal pathogens)
Cc1c(-n2nccn2)sc2c1c(=O)n(C(C)(C)C(=O)NC(C)C)c(=O)n2C[C@H](OCCC#N)c1ccccc1O [Compound I-271]	2.01 to 4 (≈ 3.55 to 7.07 µM)	10 (≈ 17.7 µM)	2.01 to 4 (≈ 3.55 to 7.07 µM)	> 50	0.3 to 1	2 (≈ 3.54 µM)	5 to 10	2.01 to 4 (≈ 3.55 to 7.07 µM)	> 50	10 (≈ 17.7 µM)	> 50	> 50	2 (≈ 3.54 µM)	–	–	–	–	–
